Reference: patent publication US6403622B1, “Phenylacetic acid heterocyclyl amides having an insecticidal effect” (Bayer Aktiengesellschaft, priority 1998, dated 2002)
Where two headings read alike, the source gives them in different places.

Experiments:
log p determination = format: physicochemical
[1] = tested on: larvae of the mustard beetle (Phaedon cochleariae); test: Phaedon larvae test; format: in vivo; conditions: 168 h, concentration of active compound 0.1 %, cabbage leaves dipped, after 7 d, read-out: Kill rate in % after 7 d
Protocol: Solvent: 7 parts by weight of dimethylformamide Emulsifier: 1 part by weight of alkylaryl polyglycol ether To produce a suitable preparation of active compound, 1 part by weight of active compound is mixed with the stated amount of solvent and the stated amount of emulsifier, and the concentrate is diluted with water to the desired concentration. Cabbage leaves (Brassica oleracea) are treated by being dipped into the preparation of active compound and are populated with larvae of the mustard beetle (Phaedon cochleariae) while the leaves are still moist.

Plasmopara vilicola = test: Plasmopara test (grapevine) / protective; format: in vivo; conditions: 144 h, application rate 100 g/ha, evaluation 6 days after inoculation, read-out: Efficacy in %
Protocol: (§1) Solvent: 47 parts by weight of acetone
(§2) Emulsifier: 3 parts by weight of alkylaryl polyglycol ether
(§3) To produce a suitable preparation of active compound, 1 part by weight of active compound is mixed with the stated amounts of solvent and emulsifier, and the concentrate is diluted with water to the desired concentration.
To test for the protective activity, young plants are sprayed with the preparation of active compound at the stated application rate. After the spray coating has dried on, the plants are inoculated with an aqueous spore suspension of Plasmopara vilicola and then remain in an incubation cabin at about 20° C. and 100% relative atmospheric humidity for 1 day. The plants are then placed in a greenhouse at about 21° C. and about 90% relative atmospheric humidity for 5 days. The plants are then moistened and placed in an incubation cabin for 1 day.
Evaluation is carried out 6 days after the inoculation. 0% means an efficacy which corresponds to that of the control, whereas an efficacy of 100% means that no infection is observed.

Podosphaera leucotricha = test: Podosphaera test (apple) / protective; format: in vivo; conditions: application rate 100 g/ha, evaluation 10 days after inoculation
Protocol: as §1, §2, §3
To test for protective activity, young plants are sprayed with the preparation of active compound at the stated application rate. After the spray coating has dried on, the plants are inoculated with an aqueous spore suspension of the causative organism of apple mildew Podosphaera leucotricha. The plants are then placed in a greenhouse at about 23° C. and a relative atmospheric humidity of about 70%.
Evaluation is carried out 10 days after the inoculation. 0% means an efficacy which corresponds to that of the control, whereas an efficacy of 100% means that no infection is observed.

[2] = tested on: greenhouse red spider mite (Tetranychus urticae); test: Tetranychus test (OP-resistant/dip treatment); format: in vivo; conditions: concentration of active compound 0.01 %, bean plants dipped, OP-resistant
Protocol: (§4) Solvent: 7 parts by weight of dimethylformamide
(§5) Emulsifier: 1 part by weight of alkylaryl polyglycol ether
To produce a suitable preparation of active compound, 1 part by weight of active compound is mixed with the stated amount of solvent and the stated amount of emulsifier, and the concentrate is diluted with emulsifier-containing water to the desired concentrations.
Bean plants (Phaseolus vulgaris) which are heavily infested by all stages of the greenhouse red spider mite (Tetranychus urticae) are dipped into a preparation of active compound of the desired concentration.
After the desired period of time, the effect in % is determined. 100% means that all spider mites have been killed; 0% means that none of the spider mites have been killed.

[3] = tested on: larvae of the green rice leafhopper (Nephotettix cincticeps); test: Nephotettix test; format: in vivo; conditions: concentration of active compound 0.1 %, rice seedlings dipped
Protocol: as §4, §5
(§6) To produce a suitable preparation of active compound, 1 part by weight of active compound is mixed with the stated amount of solvent and the stated amount of emulsifier, and the concentrate is diluted with water to the desired concentration.
Rice seedlings (Oryza sativa) are treated by being dipped into the preparation of active compound of the desired concentration and are populated with larvae of the green rice leafhopper (Nephotettix cincticeps) while the seedlings are still moist.
After the desired period of time, the kill in % is determined. 100% means that all leaf hoppers have been killed; 0% means that none of the leaf hoppers have been killed.

[4] = tested on: Erysiphe graminis f.sp. tritici; test: Erysiphe test (wheat) / protective; format: in vivo; conditions: evaluation 7 days after inoculation
Protocol: Solvent: 25 parts by weight of N,N-dimethylacetamide
Emulsifier: 0.6 part by weight of alkylaryl polyglycol ether
as §3
To test for protective activity, young plants are sprayed with the preparation of active compound at the stated application rate.
After the spray coating has dried on, the plants are dusted with spores von Erysiphe graminis f.sp. tritici.
The plants are placed in a greenhouse at a temperature of about 20° C. and a relative atmospheric humidity of about 80% to promote the development of mildew pustules.
Evaluation is carried out 7 days after the inoculation. 0% means an efficacy which corresponds to that of the control, whereas an efficacy of 100% means that no infection is observed.

[5] = tested on: caterpillars of the army worm Spodoptera frugiperda; test: Spodoptera frugiperda test; format: in vivo; conditions: concentration of active compound 0.1 %, cabbage leaves dipped
Protocol: as §4, §5, §6
Cabbage leaves (Brassica oleracea) are treated by being dipped into the preparation of active compound of the desired concentration and are populated with caterpillars of the army worm Spodoptera frugiperda while the leaves are still moist.
After the desired period of time, the effect in % is determined. 100% means that all caterpillars have been killed; 0% means that none of the caterpillars have been killed.

[6] = pH 2.3, pH 2.3, for Example 1 two values for the two isomers, read-out: log p (pH 2.3)
[7] = acidic, isomer mixtures, the higher log p value is stated, Table 13, read-out: log p (acidic)

Row | logP (log p determination; [6]) | logP (log p determination; [7]) | SMILES | pest or weed control at 0.1 % [1] [%] | pest or weed control at 100 g/ha (Plasmopara vilicola) [%] | Efficacy in % (Podosphaera leucotricha) [%] | also measured
1 | 2.12 | – | CC(=O)c1ccc(CC(=O)Nc2snc(C)c2Cl)cc1 | – | – | – | –
2 | 5.84 | – | CCCCCCCCC1COC(C)(c2ccc(CC(=O)Nc3snc(C)c3Cl)cc2)O1 (centres unmarked) [Example 1] | 100 | – | – | log p (pH 2.3) (log p determination; pH 2.3, for Example 1 two values for the two isomers): 6.05
3 | – | 3.83 | Cc1nsc(NC(=O)Cc2ccc(C3(C)OCC(c4ccccc4)O3)cc2)c1Cl (centres unmarked) [Example 3] | 100 | 99 | 99 | Kill rate in % after 7 d [2]: 100%
4 | – | 3.23 | C=CCOCC1COC(C)(c2ccc(CC(=O)Nc3snc(C)c3Cl)cc2)O1 (centres unmarked) [Example 4] | – | 100 | – | Kill rate in % after 7 d [2]: 100%
5 | – | 4 | Cc1nsc(NC(=O)Cc2ccc(C3(C)OCC(C(C)(C)C)O3)cc2)c1Cl (centres unmarked) [Example 5] | – | – | – | Kill rate in % after 6 d [3]: 100%; Kill rate in % after 7 d [2]: 100%
6 | – | 3.09 | Cc1nsc(NC(=O)Cc2ccc(C3(C)OCC(CCl)O3)cc2)c1Cl (centres unmarked) [Example 6] | 100 | 100 | – | Kill rate in % after 6 d [3]: 100%
7 | – | 3.23 | CCC1COC(C)(c2ccc(CC(=O)Nc3snc(C)c3Cl)cc2)O1 (centres unmarked) [Example 7] | 100 | 100 | 97 | Efficacy in % ([4]; application rate 1000 g/ha): 81%; Kill rate in % after 6 d [3]: 100%; Kill rate in % after 7 d [5]: 100%
8 | – | 4.4 | CC=CCCCC1COC(C)(c2ccc(CC(=O)Nc3snc(C)c3Cl)cc2)O1 (centres unmarked) [Example 8] | 100 | 97 | 95 | Efficacy in % ([4]; application rate 500 g/ha): 81%; Kill rate in % after 7 d [5]: 100%; Kill rate in % after 7 d [2]: 100%
9 | – | 4.24 | Cc1nsc(NC(=O)Cc2ccc(C3(C)OCC(COc4ccc(Cl)cc4)O3)cc2)c1Cl (centres unmarked) [Example 9] | 100 | 100 | 97 | –
10 | – | 4.32 | Cc1nsc(NC(=O)Cc2ccc(C3(C)OCC(c4cccc(Cl)c4)O3)cc2)c1Cl (centres unmarked) [Example 15] | – | 97 | – | –
11 | – | 4.82 | Cc1nsc(NC(=O)Cc2ccc(C3(C)OCC(c4ccc(Cl)c(Cl)c4)O3)cc2)c1Cl (centres unmarked) [Example 16] | 100 | – | – | –
12 | – | 4.35 | Cc1nsc(NC(=O)Cc2ccc(C3(C)OCC(c4ccc(Cl)cc4)O3)cc2)c1Cl (centres unmarked) [Example 17] | 100 | 97 | 99 | Kill rate in % after 7 d [5]: 100%
13 | – | 4.21 | Cc1nsc(NC(=O)Cc2ccc(C3(C)OCC(CBr)(CBr)CO3)cc2)c1Cl [Example 20] | – | 96 | – | Kill rate in % after 6 d [3]: 100%; Kill rate in % after 7 d [5]: 100%
14 | 1.56 | – | CC(=O)c1cccc(CC(=O)Nc2nc(C)ns2)c1 [Example 29, 5-[3(-acetylphenyl)acetaminol]-3-methyl-1,2,4-thiadiazole] | – | – | – | melting point: 91 to 98 °C
15 | 1.87 | – | CCc1nsc(NC(=O)Cc2cccc(C(C)=O)c2)n1 [Example 30] | – | – | – | melting point: 121 to 125 °C
16 | 2.14 | – | CC(=O)c1cccc(CC(=O)Nc2snc(C)c2Cl)c1 [Example 31, 5-[3-(acetylphenyl)-acetaminol]-4-chloro-3-methyl-isothiazole] | – | – | – | melting point: 77 to 83 °C
